Test results reported in patent US20240218022A1, “ANTI-VISTA MACROCYCLIC PEPTIDES AND COMPOSITIONS” (BRISTOL-MYERS SQUIBB COMPANY, priority 2022, published 2024).
Positions of bridges follow the written chain, without caps; N, C: chain ends. Non-standard residues stand in square brackets, D forms with d. Residues, ends and D or L forms follow the SMILES beside them. Cit = NC(=O)NCCC[C@H](N)C(=O)O; Ahp(2) = CCCCC[C@H](N)C(=O)O; NMeNle = CCCC[C@H](NC)C(=O)O; Tle = CC(C)(C)[C@H](N)C(=O)O; NHexGly = CCCCCCNCC(=O)O; Nle = CCCC[C@H](N)C(=O)O; Orn = NCCC[C@H](N)C(=O)O

Target: T1, mouse VISTA (mVISTA) (Mus musculus, UniProt Q9D659)
T1 construct: expressed in transfected cells; host or cells: Human embryonic kidney 293T cells
T1 sequence (Q9D659 33-308): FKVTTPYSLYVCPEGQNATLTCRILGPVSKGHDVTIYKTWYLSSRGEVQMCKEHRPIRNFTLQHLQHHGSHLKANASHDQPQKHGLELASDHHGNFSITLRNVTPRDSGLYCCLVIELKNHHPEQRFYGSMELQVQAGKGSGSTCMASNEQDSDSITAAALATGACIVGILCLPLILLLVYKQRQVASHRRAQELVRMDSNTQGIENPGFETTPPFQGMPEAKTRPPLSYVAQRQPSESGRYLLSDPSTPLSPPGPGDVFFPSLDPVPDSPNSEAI
Test: Cell-Based Binding High-Content Assay For mVISTA (HC CBA mVISTA)
Details: read-out: HC CBA mVISTA IC50
Procedure, shortened: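 293T cells expressing mouse VISTA, with compounds added either after seeding ("no wash") or before seeding and then washed out after 1 h. Biotinylated peptide 2 nM for 30 min at room temperature, then detection with Alexa 647–streptavidin. After fixation with Hoechst stain, plates were high-content imaged; IC50 from four-parameter logistic fit.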

Row | Structure (SMILES) | IC50 [nM]
1 | CCCCCCN1CC(=O)N[C@@H](Cc2ccc(O)cc2)C(=O)N[C@@H](CCCC)C(=O)N[C@@H](CC(N)=O)C(=O)N[C@@H](CCCNC(N)=O)C(=O)N(C)[C@@H](CCCC)C(=O)N[C@@H](CCCCC)C(=O)N2CCC[C@H]2C(=O)N[C@@H](C(C)(C)C)C(=O)N[C@@H](CO)C(=O)N[C@H](C(=O)NCC(N)=O)CSCC(=O)N[C@@H](Cc2ccccc2)C(=O)N[C@@H](Cc2c[nH]c3ccccc23)C(=O)N[C@@H](CC(=O)O)C1=O [Example 1390] ({CH2CO}-FWD[NHexGly]Y[Nle]N[Cit][NMeNle][Ahp(2)]P[Tle]SCG-NH2; thioether N-14) | 25.2
2 | CCCCCCN1CC(=O)N[C@@H](Cc2ccc(O)cc2)C(=O)N[C@@H](CCCC)C(=O)N[C@@H](CC(N)=O)C(=O)N[C@@H](CCCNC(=N)N)C(=O)N(C)[C@@H](CCCC)C(=O)N[C@@H](CCCCC)C(=O)N2CCC[C@H]2C(=O)N[C@@H](C(C)(C)C)C(=O)N[C@@H](CO)C(=O)N[C@H](C(=O)NCC(N)=O)CSCC(=O)N[C@@H](Cc2ccccc2)C(=O)N[C@@H](Cc2c[nH]c3ccccc23)C(=O)N[C@@H](CC(=O)O)C1=O [Example 1391] ({CH2CO}-FWD[NHexGly]Y[Nle]NR[NMeNle][Ahp(2)]P[Tle]SCG-NH2; thioether N-14) | 36.3
3 | CCCCCCN1CC(=O)N[C@@H](Cc2ccc(O)cc2)C(=O)N[C@@H](CCCC)C(=O)N[C@@H](CC(=O)O)C(=O)N[C@@H](CCCNC(=N)N)C(=O)N(C)[C@@H](CCCC)C(=O)N[C@@H](CCCCC)C(=O)N2CCC[C@H]2C(=O)N[C@@H](C(C)(C)C)C(=O)N[C@@H](CC(=O)O)C(=O)N[C@H](C(=O)NCC(N)=O)CSCC(=O)N[C@@H](Cc2ccccc2)C(=O)N[C@@H](Cc2c[nH]c3ccccc23)C(=O)N[C@@H](CC(=O)O)C1=O [Example 1392] ({CH2CO}-FWD[NHexGly]Y[Nle]DR[NMeNle][Ahp(2)]P[Tle]DCG-NH2; thioether N-14) | 38.3
4 | CCCCCCN1CC(=O)N[C@@H](Cc2ccc(O)cc2)C(=O)N[C@@H](CCCC)C(=O)N[C@@H](CC(=O)O)C(=O)N[C@@H](CCCN)C(=O)N(C)[C@@H](CCCC)C(=O)N[C@@H](CCCCC)C(=O)N2CCC[C@H]2C(=O)N[C@@H](C(C)(C)C)C(=O)N[C@@H](CC(=O)O)C(=O)N[C@H](C(=O)NCC(N)=O)CSCC(=O)N[C@@H](Cc2ccccc2)C(=O)N[C@@H](Cc2c[nH]c3ccccc23)C(=O)N[C@@H](CC(=O)O)C1=O [Example 1393] ({CH2CO}-FWD[NHexGly]Y[Nle]D[Orn][NMeNle][Ahp(2)]P[Tle]DCG-NH2; thioether N-14) | 17.2
5 | CCCCCCN1CC(=O)N[C@@H](Cc2ccc(O)cc2)C(=O)N[C@@H](CCCC)C(=O)N[C@@H](CC(N)=O)C(=O)N[C@@H](CCCN)C(=O)N(C)[C@@H](CCCC)C(=O)N[C@@H](CCCCC)C(=O)N2CCC[C@H]2C(=O)N[C@@H](C(C)(C)C)C(=O)N[C@@H](CC(=O)O)C(=O)N[C@H](C(=O)NCC(N)=O)CSCC(=O)N[C@@H](Cc2ccccc2)C(=O)N[C@@H](Cc2c[nH]c3ccccc23)C(=O)N[C@@H](CC(=O)O)C1=O [Example 1394] ({CH2CO}-FWD[NHexGly]Y[Nle]N[Orn][NMeNle][Ahp(2)]P[Tle]DCG-NH2; thioether N-14) | 34.8
6 | CCCCCCN1CC(=O)N[C@@H](Cc2ccc(O)cc2)C(=O)N[C@@H](CCCC)C(=O)N[C@@H](CC(=O)O)C(=O)N[C@@H](CCCNC(=N)N)C(=O)N(C)[C@@H](CCCC)C(=O)N[C@@H](CCCCC)C(=O)N2CCC[C@H]2C(=O)N[C@@H](C(C)(C)C)C(=O)N[C@@H](CO)C(=O)N[C@H](C(=O)NCC(N)=O)CSCC(=O)N[C@@H](Cc2ccccc2)C(=O)N[C@@H](Cc2c[nH]c3ccccc23)C(=O)N[C@@H](CC(=O)O)C1=O [Example 1395] ({CH2CO}-FWD[NHexGly]Y[Nle]DR[NMeNle][Ahp(2)]P[Tle]SCG-NH2; thioether N-14) | 48.6
7 | CCCCCCN1CC(=O)N[C@@H](Cc2ccc(O)cc2)C(=O)N[C@@H](CCCC)C(=O)N[C@@H](CC(N)=O)C(=O)N[C@@H](CCCNC(=N)N)C(=O)N(C)[C@@H](CCCC)C(=O)N[C@@H](CCCCC)C(=O)N2CCC[C@H]2C(=O)N[C@@H](C(C)(C)C)C(=O)N[C@@H](CC(=O)O)C(=O)N[C@H](C(=O)NCC(N)=O)CSCC(=O)N[C@@H](Cc2ccccc2)C(=O)N[C@@H](Cc2c[nH]c3ccccc23)C(=O)N[C@@H](CC(=O)O)C1=O [Example 1396] ({CH2CO}-FWD[NHexGly]Y[Nle]NR[NMeNle][Ahp(2)]P[Tle]DCG-NH2; thioether N-14) | 26.8
8 | CCCCCCN1CC(=O)N[C@@H](Cc2ccc(O)cc2)C(=O)N[C@@H](CCCC)C(=O)N[C@@H](CC(=O)O)C(=O)N[C@@H](CCCN)C(=O)N(C)[C@@H](CCCC)C(=O)N[C@@H](CCCCC)C(=O)N2CCC[C@H]2C(=O)N[C@@H](C(C)(C)C)C(=O)N[C@@H](CC(=O)O)C(=O)N[C@H](C(=O)N[C@@H](CC(N)=O)C(=O)O)CSCC(=O)N[C@@H](Cc2ccccc2)C(=O)N[C@@H](Cc2c[nH]c3ccccc23)C(=O)N[C@@H](CC(=O)O)C1=O [Example 1397] ({CH2CO}-FWD[NHexGly]Y[Nle]D[Orn][NMeNle][Ahp(2)]P[Tle]DCN-OH; thioether N-14) | 36
9 | CCCCCCN1CC(=O)N[C@@H](Cc2ccc(O)cc2)C(=O)N[C@@H](CCCC)C(=O)N[C@@H](CC(N)=O)C(=O)N[C@@H](CCCNC(=N)N)C(=O)N(C)[C@@H](CCCC)C(=O)N[C@@H](CCCCC)C(=O)N2CCC[C@H]2C(=O)N[C@@H](C(C)(C)C)C(=O)N[C@@H](CC(=O)O)C(=O)N[C@H](C(=O)N[C@@H](CC(N)=O)C(=O)O)CSCC(=O)N[C@@H](Cc2ccccc2)C(=O)N[C@@H](Cc2c[nH]c3ccccc23)C(=O)N[C@@H](CC(=O)O)C1=O [Example 1398] ({CH2CO}-FWD[NHexGly]Y[Nle]NR[NMeNle][Ahp(2)]P[Tle]DCN-OH; thioether N-14) | 43.9
10 | CCCCCCN1CC(=O)N[C@@H](Cc2ccc(O)cc2)C(=O)N[C@@H](CCCC)C(=O)N[C@@H](CC(=O)O)C(=O)N[C@@H](CCCNC(=N)N)C(=O)N(C)[C@@H](CCCC)C(=O)N[C@@H](CCCCC)C(=O)N2CCC[C@H]2C(=O)N[C@@H](C(C)(C)C)C(=O)N[C@@H](CO)C(=O)N[C@H](C(=O)N[C@@H](CC(N)=O)C(=O)O)CSCC(=O)N[C@@H](Cc2ccccc2)C(=O)N[C@@H](Cc2c[nH]c3ccccc23)C(=O)N[C@@H](CC(=O)O)C1=O [Example 1399] ({CH2CO}-FWD[NHexGly]Y[Nle]DR[NMeNle][Ahp(2)]P[Tle]SCN-OH; thioether N-14) | 27.3
11 | CCCCCCN1CC(=O)N[C@@H](Cc2ccc(O)cc2)C(=O)N[C@@H](CCCC)C(=O)N[C@@H](CC(N)=O)C(=O)N[C@@H](CCCN)C(=O)N(C)[C@@H](CCCC)C(=O)N[C@@H](CCCCC)C(=O)N2CCC[C@H]2C(=O)N[C@@H](C(C)(C)C)C(=O)N[C@@H](CO)C(=O)N[C@H](C(=O)N[C@@H](CC(N)=O)C(=O)O)CSCC(=O)N[C@@H](Cc2ccccc2)C(=O)N[C@@H](Cc2c[nH]c3ccccc23)C(=O)N[C@@H](CC(=O)O)C1=O [Example 1400] ({CH2CO}-FWD[NHexGly]Y[Nle]N[Orn][NMeNle][Ahp(2)]P[Tle]SCN-OH; thioether N-14) | 14.1
12 | CCCCCCN1CC(=O)N[C@@H](Cc2ccc(O)cc2)C(=O)N[C@@H](CCCC)C(=O)N[C@@H](CC(=O)O)C(=O)N[C@@H](CCCN)C(=O)N(C)[C@@H](CCCC)C(=O)N[C@@H](CCCCC)C(=O)N2CCC[C@H]2C(=O)N[C@@H](C(C)(C)C)C(=O)N[C@@H](CO)C(=O)N[C@H](C(=O)N[C@@H](CC(N)=O)C(=O)O)CSCC(=O)N[C@@H](Cc2ccccc2)C(=O)N[C@@H](Cc2c[nH]c3ccccc23)C(=O)N[C@@H](CC(=O)O)C1=O [Example 1401] ({CH2CO}-FWD[NHexGly]Y[Nle]D[Orn][NMeNle][Ahp(2)]P[Tle]SCN-OH; thioether N-14) | 20.2
13 | CCCCCCN1CC(=O)N[C@@H](Cc2ccc(O)cc2)C(=O)N[C@@H](CCCC)C(=O)N[C@@H](CC(N)=O)C(=O)N[C@@H](CCCNC(=N)N)C(=O)N(C)[C@@H](CCCC)C(=O)N[C@@H](CCCCC)C(=O)N2CCC[C@H]2C(=O)N[C@@H](C(C)(C)C)C(=O)N[C@@H](CO)C(=O)N[C@H](C(=O)N[C@@H](CC(N)=O)C(=O)O)CSCC(=O)N[C@@H](Cc2ccccc2)C(=O)N[C@@H](Cc2c[nH]c3ccccc23)C(=O)N[C@@H](CC(=O)O)C1=O [Example 1402] ({CH2CO}-FWD[NHexGly]Y[Nle]NR[NMeNle][Ahp(2)]P[Tle]SCN-OH; thioether N-14) | 33.8
14 | CCCCCCN1CC(=O)N[C@@H](Cc2ccc(O)cc2)C(=O)N[C@@H](CCCC)C(=O)N[C@@H](CC(=O)O)C(=O)N[C@@H](CCCNC(=N)N)C(=O)N(C)[C@@H](CCCC)C(=O)N[C@@H](CCCCC)C(=O)N2CCC[C@H]2C(=O)N[C@@H](C(C)(C)C)C(=O)N[C@@H](CC(=O)O)C(=O)N[C@H](C(=O)N[C@@H](CC(N)=O)C(=O)O)CSCC(=O)N[C@@H](Cc2ccccc2)C(=O)N[C@@H](Cc2c[nH]c3ccccc23)C(=O)N[C@@H](CC(=O)O)C1=O [Example 1403] ({CH2CO}-FWD[NHexGly]Y[Nle]DR[NMeNle][Ahp(2)]P[Tle]DCN-OH; thioether N-14) | 32
15 | CCCCCCN1CC(=O)N[C@@H](Cc2ccc(O)cc2)C(=O)N[C@@H](CCCC)C(=O)N[C@@H](CC(N)=O)C(=O)N[C@@H](CCCN)C(=O)N(C)[C@@H](CCCC)C(=O)N[C@@H](CCCCC)C(=O)N2CCC[C@H]2C(=O)N[C@@H](C(C)(C)C)C(=O)N[C@@H](CC(=O)O)C(=O)N[C@H](C(=O)N[C@@H](CC(N)=O)C(=O)O)CSCC(=O)N[C@@H](Cc2ccccc2)C(=O)N[C@@H](Cc2c[nH]c3ccccc23)C(=O)N[C@@H](CC(=O)O)C1=O [Example 1404] ({CH2CO}-FWD[NHexGly]Y[Nle]N[Orn][NMeNle][Ahp(2)]P[Tle]DCN-OH; thioether N-14) | 16
